Experiments:
Human PARP-1 enzyme = biological target: T1, Human PARP-1 enzyme (Homo sapiens, UniProt P09874); experiment: In vitro Scintillation Proximity Assay (SPA) for PARP-1 inhibitory activity; type: biochemical; conditions: read-out: in vitro SPA assay PARP-1 pIC50 (converted)
T1 construct: purchased Trevigen
Summary of the method: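 SPA assay: nicked-DNA-activated PARP-1 (0.1–0.2 μg/ml) ADP-ribosylates biotinylated histones (2 μg/ml) using [3H]-NAD+, 20 min at RT in Tris pH 8/DTT/MgCl2, stopped with 2 mM NAD+. Blank-subtracted cpm expressed as % control; IC50 by linear interpolation, reported as pIC50 (10−5 to 3×10−9 M tested).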

PC-3 cells = experiment: Antiproliferative activity, Alamar Blue assay, PC-3 cells; type: cell-based, human; conditions: for IC50: Homo sapiens, PC-3, PC3 cells, read-out: PC3 antiproliferative activity pIC50 (converted); for PC3 antiproliferative activity pIC50: PC3 cells
Summary of the method: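 PC-3 cells seeded at 4.5×10^3 cells/ml, left to adhere 24 hr, then exposed to compound for 4 days. Resazurin (Alamar Blue) added for a further 24 hrs at 37° C; fluorescence read at 540/590 nm. Viability as % of untreated control, mean of 3 wells; IC50 by probit analysis, reported as pIC50.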

T1 sequence (P09874 whole entry): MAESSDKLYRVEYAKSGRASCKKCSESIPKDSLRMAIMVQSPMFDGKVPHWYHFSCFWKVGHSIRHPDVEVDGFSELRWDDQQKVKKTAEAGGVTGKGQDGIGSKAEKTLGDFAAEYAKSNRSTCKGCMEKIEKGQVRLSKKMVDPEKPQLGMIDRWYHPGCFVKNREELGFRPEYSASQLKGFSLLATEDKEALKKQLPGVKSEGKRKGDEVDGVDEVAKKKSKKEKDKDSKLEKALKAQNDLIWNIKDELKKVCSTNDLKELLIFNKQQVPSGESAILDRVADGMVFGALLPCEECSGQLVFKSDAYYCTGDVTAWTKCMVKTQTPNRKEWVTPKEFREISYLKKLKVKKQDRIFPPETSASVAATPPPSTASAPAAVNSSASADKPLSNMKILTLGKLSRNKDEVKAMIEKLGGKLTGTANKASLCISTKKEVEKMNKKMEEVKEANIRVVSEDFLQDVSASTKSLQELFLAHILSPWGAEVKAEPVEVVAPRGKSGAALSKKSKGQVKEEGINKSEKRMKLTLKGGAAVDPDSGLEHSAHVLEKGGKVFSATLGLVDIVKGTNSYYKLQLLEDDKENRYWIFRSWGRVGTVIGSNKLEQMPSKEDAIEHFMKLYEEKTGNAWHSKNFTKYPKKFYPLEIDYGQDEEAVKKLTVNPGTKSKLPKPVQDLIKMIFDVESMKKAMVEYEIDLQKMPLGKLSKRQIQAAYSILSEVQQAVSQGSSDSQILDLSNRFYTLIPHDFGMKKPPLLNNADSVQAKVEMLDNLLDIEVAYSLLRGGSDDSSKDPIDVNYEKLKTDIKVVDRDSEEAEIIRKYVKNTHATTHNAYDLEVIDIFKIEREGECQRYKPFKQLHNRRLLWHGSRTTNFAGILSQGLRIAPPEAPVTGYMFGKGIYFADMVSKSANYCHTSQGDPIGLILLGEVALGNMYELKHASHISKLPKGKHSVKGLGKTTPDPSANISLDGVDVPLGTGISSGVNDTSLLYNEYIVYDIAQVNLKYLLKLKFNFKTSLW

| Structure (SMILES) | IC50 (Human PARP-1 enzyme) | IC50 (PC-3 cells) | PC3 antiproliferative activity pIC50 (PC-3 cells) |
| --- | --- | --- | --- |
| CCc1cc2ccc([C@@](C)(C#N)CN(C)Cc3ccc(C#N)cc3)cc2[nH]c1=O (single isomer, unassigned) [Compound 253] | 100 nM | 158 nM | – |
| CCc1cc2ccc(C(C)(C#N)Cc3cccc(-c4cnn(C)c4)c3)cc2[nH]c1=O (centres unmarked) [Compound 17] | 251 nM | 10000 nM | – |
| CCc1cc2ccc(C(C)(C#N)Cc3cccc(-c4ccccc4)c3)cc2[nH]c1=O (centres unmarked) [Compound 18] | 2000 nM | 1260 nM | – |
| CCc1cc2ccc(C(C)(C#N)Cc3cccc(I)c3)cc2[nH]c1=O (centres unmarked) [Compound 19] | 1000 nM | 158 nM | – |
| CCc1cc2ccc(C(C)(C#N)Cc3cccc(N(C)C)c3)cc2[nH]c1=O (centres unmarked) [Compound 20] | 398 nM | 200 nM | – |
| CCc1cc2ccc(C(C)(C#N)Cc3cccc(N4CCOCC4)c3)cc2[nH]c1=O (centres unmarked) [Compound 21] | 398 nM | 2000 nM | – |
| CCc1cc2ccc(C(C)(C#N)Cc3cccc(OCc4ccccc4)c3)cc2[nH]c1=O (centres unmarked) [Compound 23] | 1260 nM | 5010 nM | – |
| CCc1cc2ccc(C(C)(C#N)Cc3cccc(OCCOC)c3)cc2[nH]c1=O (centres unmarked) [Compound 24] | 631 nM | 1000 nM | – |
| CCc1cc2ccc(C(C)(C#N)Cc3cccc(S(F)(F)(F)(F)F)c3)cc2[nH]c1=O (centres unmarked) [Compound 177] | 79.4 nM | 3160 nM | – |
| CCc1cc2ccc(C(C)(C#N)Cc3cccc(C4(N)CC4)c3)cc2[nH]c1=O (centres unmarked) [Compound 180] | 25.1 nM | 3160 nM | – |
| CCc1cc2ccc(C(C)(C#N)CCCN(C)C(=O)c3ccc(F)cc3)cc2[nH]c1=O (centres unmarked) [Compound 188] | 79.4 nM | 2510 nM | – |
| CCc1cc2ccc([C@](C)(C#N)CN(C)Cc3ccc(C#N)cc3)cc2[nH]c1=O [Compound 190] | 63.1 nM | 10000 nM | – |
| CCc1cc2cc(C)c(C(C)(C#N)Cc3cccc(C#N)n3)cc2[nH]c1=O (centres unmarked) [Compound 208] | 100 nM | 10000 nM | – |

Next, values leading:

| IC50 (Human PARP-1 enzyme) | IC50 (PC-3 cells) | PC3 antiproliferative activity pIC50 (PC-3 cells) | Structure (SMILES) |
| --- | --- | --- | --- |
| 100 nM | 10000 nM | – | Cc1cc2ccc(C(C)(C#N)C3CCc4c(C#N)cccc43)cc2[nH]c1=O (racemic) [Compound 393] |
| 126 nM | – | 5.5 | CCc1cc2ccc(C(C)(C#N)C3CCc4ccc(Br)cc43)cc2[nH]c1=O (single isomer, unassigned) [Compound 380] |
| 79.4 nM | – | 7.0 | CCc1cc2ccc(C(C)(C#N)C3CCc4ccc(Br)cc43)cc2[nH]c1=O (single isomer, unassigned) [Compound 381] |
| 200 nM | 10000 nM | – | Cc1cc2ccc([C@](C)(C#N)C3CCc4cccnc43)cc2[nH]c1=O (single isomer, unassigned) [Compound 388] |
| 200 nM | 10000 nM | – | CCc1cc2ccc([C@](C)(C#N)[C@H]3CCOc4ccccc43)cc2[nH]c1=O (single isomer, unassigned) [Compound 394] |
| 63.1 nM | 794 nM | – | CCc1cc2ccc([C@@](C)(C#N)[C@H]3CCOc4ccccc43)cc2[nH]c1=O (single isomer, unassigned) [Compound 395] |
| 100 nM | 7940 nM | – | CCc1cc2ccc([C@](C)(C#N)C[C@H]3CCc4ccccc4O3)cc2[nH]c1=O (single isomer, unassigned) [Compound 396] |
| 126 nM | 7940 nM | – | CCc1cc2ccc(C(C)(C#N)Cc3cccc(O)c3)cc2[nH]c1=O (centres unmarked) [Compound 22] |
| 126 nM | 398 nM | – | CCC(=O)c1cccc(CC(C)(C#N)c2ccc3cc(C)c(=O)[nH]c3c2)c1 (centres unmarked) [Compound 173] |
| 39.8 nM | 200 nM | – | CCc1cc2ccc(C(C)(C#N)Cc3cc(C)cc(C#N)c3)cc2[nH]c1=O (centres unmarked) [Compound 174] |
| 126 nM | 501 nM | – | Cc1cc2ccc(C(C)(C#N)Cc3cccc(Oc4ncccn4)c3)cc2[nH]c1=O (centres unmarked) [Compound 191] |
| 100 nM | 631 nM | – | Cc1cc2ccc(C(C)(C#N)Cc3cccc(Oc4ccccc4)n3)cc2[nH]c1=O (centres unmarked) [Compound 193] |
